# Active and inactive are the calls of the source.
# What was measured:
# Protein Wnt-3a = Protein Wnt-3a (Mus musculus, UniProt P27467); test: antagonism of Wnt3a pathway luciferase reporter – Wnt-LIGHT cells, luminescence, selectivity assay for Gli-SUFU antagonist project, dose response (AID 651570); assay type: functional; conditions: read-out: IC50_Mean;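 also: Wnt-LIGHT reporter cells stimulated with conditioned medium from Wnt3a-producing cells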
# INS1 = test: INS-1E survival protection against cytokine death – cell-based, luminescence, retest, dose response (AID 449756); assay type: functional; conditions: Rattus norvegicus;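 also: cell death triggered by IL-1 beta plus TNF-alpha plus IFN-gamma mixture; protective hits raise ATP signal compared with cytokine alone wells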
# [1] = HEK-293T viability loss after treatment – luminescence, T-cell screen hits, cytotoxicity control for TCR NF-kB inhibitor project, dose response (AID 489026); assay type: functional, cell-based;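 also: cells exposed to compound about 14 hours before the viability readout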
# Melanocortin receptor 4 = Melanocortin receptor 4 (Homo sapiens, UniProt P32245); assay type: functional, cell-based;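 also: Cell-based assay with luminescence read-out, confirmatory dose-response testing for agonist activity of biased ligands at MC4R; human U2OS cells with tagged receptor and beta-arrestin; potency of agonists that increase receptor coupling to beta-arrestin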
# H9c2 = test: cells; assay type: functional, cell-based; conditions: Rattus norvegicus, H9c2, Myocardium;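 also: confirmatory concentration-response retest of ultra-high-throughput screening hits for modulation of myocardial damage; cell death induced by hydrogen peroxide oxidative stress; compound pretreatment for 60 min then peroxide exposure for 2 h; potency is for protecting the cells against peroxide damage rather than for killing them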
# [2] = reduction of Shn3 3'UTR-driven luciferase in osteoblasts – cell-based, Clone20 osteoblasts, firefly luciferase, cherry-picked, dose response (AID 624132); assay type: functional;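 also: firefly luciferase luminescence from reporter carrying the Shn3 3'UTR in osteoblasts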
# [3] = loss of viability in HepG2 cells – cell-based, CellTiter-Glo, cherry-picked, cytotoxicity control for Shn3 inhibitor project, dose response (AID 624134); assay type: functional
# [4] = non-specific 3'UTR reporter inhibition in Clone20-Shn3RL – cell-based, Renilla luciferase, cherry-picked, counter-screen for Shn3 inhibitor project, dose response (AID 624133); assay type: functional
# Nonstructural protein 1 = Nonstructural protein 1 (Influenza A virus, UniProt Q194T2); assay type: functional, Influenza A virus (A/California/07/2009(H1N1))
# [5] = bead-based luminescence quenchers, dual-tagged ARNT – biochemical, AlphaScreen, cherry-pick, artefact control for ARNT-TACC3 interaction inhibitor project, dose response (AID 651705); assay type: functional;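 also: AlphaScreen bead proximity signal that flags compounds interfering with the detection technology; potency reflects signal decrease which marks the compound as an assay artifact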
# BJ [6] = test: BJ-TERT fibroblast viability loss – cell-based, RAS-independent, luminescence, dose response (AID 1933); assay type: functional; conditions: Homo sapiens
# BJ [7] = test: cells; assay type: functional, cell-based; conditions: Homo sapiens
# BJ [8] = test: growth inhibition of engineered Ras-driven BJ cells – cell-based, alamar blue fluorescence, cherrypicked samples, dose response (AID 2631); assay type: functional; conditions: Homo sapiens;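 also: confirmatory dose-response assay in RAS-dependent BJ fibroblasts engineered with TERT, LT and ST, with cytotoxicity read by fluorescence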
# [9] = DRD fibroblast viability loss – cell-based, non-viral oncogenic, luminescence, dose response (AID 1934); assay type: functional; conditions: Homo sapiens
# [10] = viability of uninfected HEp-2 cells – cell-based, HTS, cytotoxicity control for RSV inhibitor project, dose response (AID 2410); assay type: functional; conditions: human respiratory syncytial virus
# [11] = target: Adenosylmethionine-8-amino-7-oxononanoate aminotransferase (Mycobacterium tuberculosis, UniProt P9WQ81); test: Mycobacterium tuberculosis BioA enzyme inhibitor Measured in Biochemical System Using Plate Reader - 2163-02_Inhibitor_Dose_CherryPick_Activity.; assay type: functional, Mycobacterium tuberculosis UT205
# Chain of Adenosylmethionine-8-amino-7-oxononanoate aminotransferase (P9WQ81 whole entry): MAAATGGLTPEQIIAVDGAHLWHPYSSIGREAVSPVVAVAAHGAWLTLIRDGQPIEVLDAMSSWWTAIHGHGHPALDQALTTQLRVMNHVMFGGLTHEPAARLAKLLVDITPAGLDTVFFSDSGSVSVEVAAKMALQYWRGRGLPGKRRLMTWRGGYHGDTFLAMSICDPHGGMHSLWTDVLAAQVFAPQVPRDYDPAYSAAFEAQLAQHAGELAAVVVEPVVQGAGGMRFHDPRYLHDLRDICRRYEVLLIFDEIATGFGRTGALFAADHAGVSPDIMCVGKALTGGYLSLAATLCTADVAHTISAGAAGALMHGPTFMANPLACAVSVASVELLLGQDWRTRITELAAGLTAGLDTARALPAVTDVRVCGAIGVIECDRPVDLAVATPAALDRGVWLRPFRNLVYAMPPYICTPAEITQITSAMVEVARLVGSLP
# Chain of Protein Wnt-3a (P27467 whole entry): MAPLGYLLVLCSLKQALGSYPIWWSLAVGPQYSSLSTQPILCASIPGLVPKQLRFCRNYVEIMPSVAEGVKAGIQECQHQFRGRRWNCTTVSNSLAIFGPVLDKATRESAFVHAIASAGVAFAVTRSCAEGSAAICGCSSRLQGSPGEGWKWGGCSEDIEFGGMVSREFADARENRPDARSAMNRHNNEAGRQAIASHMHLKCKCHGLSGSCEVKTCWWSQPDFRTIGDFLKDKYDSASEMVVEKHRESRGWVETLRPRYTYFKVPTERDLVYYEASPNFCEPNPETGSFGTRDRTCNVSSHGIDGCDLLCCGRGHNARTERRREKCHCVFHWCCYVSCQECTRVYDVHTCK
# Chain of Nonstructural protein 1 (Q194T2 whole entry): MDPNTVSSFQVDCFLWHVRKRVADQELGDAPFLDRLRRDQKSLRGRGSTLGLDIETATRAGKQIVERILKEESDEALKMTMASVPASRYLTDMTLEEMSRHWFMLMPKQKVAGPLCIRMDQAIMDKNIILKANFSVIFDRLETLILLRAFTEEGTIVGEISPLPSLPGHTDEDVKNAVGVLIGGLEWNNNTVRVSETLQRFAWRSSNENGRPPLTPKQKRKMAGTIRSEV
# Chain of Melanocortin receptor 4 (P32245 whole entry): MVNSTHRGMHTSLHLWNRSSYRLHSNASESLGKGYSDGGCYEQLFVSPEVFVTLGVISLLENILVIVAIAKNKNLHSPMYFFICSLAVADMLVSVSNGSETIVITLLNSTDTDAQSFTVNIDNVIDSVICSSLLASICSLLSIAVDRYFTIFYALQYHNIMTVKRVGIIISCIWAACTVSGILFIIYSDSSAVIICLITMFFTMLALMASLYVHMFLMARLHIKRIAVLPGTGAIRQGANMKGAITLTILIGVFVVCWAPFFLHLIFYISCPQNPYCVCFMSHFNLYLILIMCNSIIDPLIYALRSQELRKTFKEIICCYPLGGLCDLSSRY
smiles,measurement,setting,value
CC(=O)c1c(C)[nH]c(C(=O)OCC(=O)Nc2ccc(C)cc2[N+](=O)[O-])c1C,IC50,Protein Wnt-3a,0.245 µM (active)
same,AC50,INS1,1.12 µM (active)
same,IC50,[1],> 80 µM (inactive)
COc1ccc(-c2cc(NC=O)c3ncc(-c4ccccc4)n3c2)cc1OC,EC50,Melanocortin receptor 4,> 89.2 µM (inactive)
same,IC50,H9c2,> 79 µM (inactive)
CC(Sc1nc2ccccc2c(=O)n1C)C(=O)NC1CCCCC1C (configuration not stated),AC50,[2],3.46 µM (active)
same,AC50,[3],26.2 µM (active)
same,IC50,Protein Wnt-3a,4.15 µM (active)
same,AC50,[4],3.78 µM (active)
NC(=NOC(=O)Cc1ccc([N+](=O)[O-])cc1)c1ccccn1,IC50,Nonstructural protein 1,32.1 µM (active)
same,AC50,[5],78.8 µM (active)
C[C@@H]1C[C@H]2OC(=O)C3(CO3)[C@H]2[C@H](O)[C@]2(C)C(=O)C3OC3[C@@H]12 (some centres not stated),EC50,BJ [6],17 µM (active)
same,EC50,BJ [7],14.3 µM (active)
same,EC50,BJ [8],> 133 µM (inactive)
same,EC50,[9],14.2 µM (active)
same,CC50,[10],15.9 µM (active)
O=C1CCCc2c1cc(C(=O)NCc1ccco1)c(=O)n2-c1ccc(Cl)cc1,AC50,[11],3.08 µM (active)
